pEC50: −log10 of the molar value.
Legend:
[1] = system: female diet-induced obese (DIO) C57BL/6NHsd mice; experiment: Acute and chronic effects after subcutaneous treatment in female diet-induced obese (DIO) mice; format: in vivo, mouse; conditions: for Body mass compared to the DIO-Vehicle group / Whole body fat mass compared to the DIO-Vehicle group / Plasma insulin concentrations compared to DIO vehicle / Plasma total cholesterol concentrations compared to DIO vehicle / Liver mass on day 28 compared to DIO animals treated with vehicle / Plasma alanine aminotransferase concentration on day 28 compared to DIO vehicle: 30 μg/kg s.c. twice daily; for Body mass compared to the DIO-Vehicle group / Whole body fat mass compared to the DIO-Vehicle group / Body mass change: 28 days; for Body mass compared to the DIO-Vehicle group / Whole body fat mass compared to the DIO-Vehicle group / Plasma insulin concentrations compared to DIO vehicle / Plasma total cholesterol concentrations compared to DIO vehicle / Liver mass on day 28 compared to DIO animals treated with vehicle / Plasma alanine aminotransferase concentration on day 28 compared to DIO vehicle / 24 hour blood glucose profile following first treatment: in words; for Plasma insulin concentrations compared to DIO vehicle / Plasma total cholesterol concentrations compared to DIO vehicle: day 28; for 24 hour blood glucose profile following first treatment: 30 μg/kg s.c., day 1, fed DIO mice, vs DIO control; for Body mass change / Whole body fat mass change / Terminal liver mass (g) / Terminal plasma alanine aminotransferase (U/L) / Terminal plasma insulin (U/L) / Terminal plasma total cholesterol (mmol/L): Table 11, twice-daily 30 μg/kg s.c.; for Body mass change: mean ± SEM; for Whole body fat mass change: QNMR predose vs day 26, mean ± SEM; for Terminal liver mass (g) / Terminal plasma alanine aminotransferase (U/L) / Terminal plasma insulin (U/L) / Terminal plasma total cholesterol (mmol/L): day 28, mean ± SEM
Procedure: Female C57BL/6NHsd mice were ordered group housed from Envigo RMS Inc., shipped group housed and remained group housed with shipped cage mates in shoebox caging with wood chip bedding until day 38 of the predose phase. At the study start mice were between 25-26 weeks old.
Mice were housed under vivarium conditions that included a 12 h light/dark cycle (light phase 04:00 AM-4:00 PM), room temperatures between 23-26° C. and a relative humidity between 30-70%. All animals had free access to water and a high fat diet (TD97366) for 16 weeks prior to pharmacological intervention (dosing phase). Feed was replaced with fresh feed weekly until and for the last time on day 38 of the predose phase. During the subsequent dosing phase, approximately 50% of the remaining feed were removed, replaced with fresh feed, and pellets were mixed evenly once per week.
On predose day 38, obese DIO mice were assigned to treatment groups (n=8) to match mean body masses between all DIO groups. An age-matched group with ad libitum access to a rodent maintenance diet (Teklad Global Diets Rodent 2014, pelleted) was included in the study as a lean control group. In the predosing phase from day 32 through 38, all study animals were treated with vehicle (Phosphate Buffered Saline, PBS, Gibco, without CaCl2 and MgCl2) once daily (s.c. approximately 0.2 mL/mouse).
On day 37 of the predose phase, the test article was diluted with PBS to a concentration of 100 μg/mL and aliquots of this stock solution were stored at approximately ≤−60° C. Stock aliquots were thawed for weekly use and thereafter stored in a refrigerator at approximately 4° C. The injected test article solution was prepared fresh once on each dosing day by diluting stock solution with PBS to achieve the desired concentration.
Mice were treated twice daily with a s.c. injection of PBS-vehicle or the test article for 28 days. The morning dosing was initiated and completed between 06:00 and 07:30 AM and the afternoon dosing between 2:00 and 3:30 PM. On day 28 of the dosing phase only the morning dose was administered. The applied volume was 5 ml/kg and the dose was adjusted to the most recent body mass recording of each individual.
Animals had unlimited access to water and feed during the experiment. On day 1 of the dosing phase approximately 5 μL of blood were collected via tail clips at hour 0, prior to the first s.c. dose of PBS-vehicle or test-article as well as 1, 2, 3, 4, 6, and 24 hours post-dose. Animals received the second s.c. dose of PBS-vehicle or test-article 8 hours after the first dose. The 24 hour blood collection of the blood glucose profile was performed prior to dosing on day 2. Glucose measurements were performed in whole blood and in duplicate or triplicate using Aviva glucometers.
Body mass was measured daily approximately between 06:00-07:30 AM from day 32 through 38 of the predosing phase and throughout the 28 days of the dosing phase. During the dosing phase mice were treated twice daily with either a s.c. injection of PBS-vehicle or test article.
To determine whole body fat mass Quantitative Nuclear Magnetic Resonance (QNMR) measurements were performed on predosing day 37 and on day 26 of the dosing phase. During the dosing phase mice were treated twice daily with either a s.c. injection of PBS-vehicle or test article.
On day 28 blood was collected prior to any other inlife activities for determination of plasma insulin concentrations. Then the morning dose was administered and necropsy was performed 4 hours post-dose. For this purpose animals were anesthetized with isoflurane and blood was collected by orbital bleeding.
On day 28 and 4 hours after the morning dose, blood was collected from mice under isoflurane anesthesia as described above. Then mice were killed and livers were collected and weighed.
Data are depicted as means±SEM. […] A One-Way ANOVA and Tukey Test were used for pairwise multiple comparisons of all groups (n=8/group, deviations from group size are indicated). […]

[2] = biological target: T1, human GIP receptor (hGIP-R) (Homo sapiens, UniProt P48546); experiment: cAMP response (HTRF) of HEK-293 cells stably expressing human GIP receptor; format: cell-based; conditions: Table 8; cAMP formation
T1 construct: expressed in transfected cells; host or cells: HEK-293
T1 sequence (P48546 22-466): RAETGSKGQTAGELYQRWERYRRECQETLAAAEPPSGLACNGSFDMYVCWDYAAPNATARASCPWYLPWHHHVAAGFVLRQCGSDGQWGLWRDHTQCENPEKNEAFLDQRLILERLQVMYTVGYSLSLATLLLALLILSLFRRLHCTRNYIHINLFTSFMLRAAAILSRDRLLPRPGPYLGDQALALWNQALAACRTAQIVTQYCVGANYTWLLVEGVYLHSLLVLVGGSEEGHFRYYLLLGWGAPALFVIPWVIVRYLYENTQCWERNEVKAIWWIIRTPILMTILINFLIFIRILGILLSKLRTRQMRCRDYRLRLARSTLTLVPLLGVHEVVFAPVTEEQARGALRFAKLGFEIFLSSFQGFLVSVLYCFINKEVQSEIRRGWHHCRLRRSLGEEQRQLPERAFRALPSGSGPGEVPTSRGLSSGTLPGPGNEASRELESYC
Procedure: cAMP content of cells was determined using a kit from Cisbio Corp. (cat. no. 62AM4PEJ) based on HTRF (Homogenous Time Resolved Fluorescence). For preparation, cells were split into T175 culture flasks and grown overnight to near confluency in medium (DMEM/10% FBS). Medium was then removed and cells washed with PBS lacking calcium and magnesium, followed by proteinase treatment with accutase (Sigma-Aldrich cat. no. A6964). Detached cells were washed and resuspended in assay buffer (1×HBSS; 20 mM HEPES, 0.1% BSA, 2 mM IBMX) and cellular density determined. They were then diluted to 400000 cells/ml and 25 μl-aliquots dispensed into the wells of 96-well plates. For measurement, 25 μl of test compound in assay buffer was added to the wells, followed by incubation for 30 minutes at room temperature.
Potencies of peptidic compounds at the GLP-1, glucagon and GIP receptors were determined by exposing cells expressing human glucagon receptor (hGlucagon R), human GIP receptor (hGIP-R) or human GLP-1 receptor (hGLP-1 R) to the listed compounds at increasing concentrations and measuring the formed cAMP as described in Methods.

| SMILES | Body mass compared to the DIO-Vehicle group [1] | Whole body fat mass compared to the DIO-Vehicle group [1] | Plasma insulin concentrations compared to DIO vehicle [1] | Plasma total cholesterol concentrations compared to DIO vehicle [1] | Liver mass on day 28 compared to DIO animals treated with vehicle [1] | Plasma alanine aminotransferase concentration on day 28 compared to DIO vehicle [1] | 24 hour blood glucose profile following first treatment [1] | Body mass change [1] | Whole body fat mass change [1] | Terminal liver mass (g) [1] | Terminal plasma alanine aminotransferase (U/L) [1] | Terminal plasma insulin (U/L) [1] | Terminal plasma total cholesterol (mmol/L) [1] | pEC50 [2] |
| --- | --- | --- | --- | --- | --- | --- | --- | --- | --- | --- | --- | --- | --- | --- |
| CCCCCCCCCCCCCCCC(=O)N[C@@H](CCC(=O)N[C@@H](CCC(=O)NCCCC[C@H](NC(=O)[C@H](CC(C)C)NC(=O)[C@H](CCCCN)NC(=O)[C@H](CO)NC(=O)[C@H](CC(C)C)NC(=O)[C@H](CC(=O)O)NC(=O)[C@H](CO)NC(=O)[C@@H](NC(=O)[C@H](Cc1ccccc1)NC(=O)[C@@H](NC(=O)CNC(=O)[C@H](CCC(N)=O)NC(=O)C(C)(C)NC(=O)[C@@H](N)Cc1c[nH]cn1)[C@@H](C)O)[C@@H](C)O)C(=O)N[C@@H](CCC(=O)O)C(=O)N[C@@H](CCC(=O)O)C(=O)N[C@@H](CCC(N)=O)C(=O)N[C@@H](CCCNC(=N)N)C(=O)N[C@@H](CCC(N)=O)C(=O)NC(C)(C)C(=O)N[C@@H](CCC(=O)O)C(=O)N[C@@H](Cc1ccccc1)C(=O)N[C@H](C(=O)N[C@@H](CCC(=O)O)C(=O)N[C@@H](Cc1c[nH]c2ccccc12)C(=O)N[C@@H](CC(C)C)C(=O)N[C@@H](CCCCN)C(=O)N[C@@H](C)C(=O)NCC(=O)NCC(=O)N[C@@H](Cc1c[nH]cn1)C(=O)N1CCC[C@H]1C(=O)N[C@@H](CO)C(=O)NC(C)(C)C(=O)N[C@@H](CCCCN)C(=O)N1CCC[C@H]1C(=O)N1CCC[C@H]1C(=O)N1CCC[C@H]1C(=O)N[C@@H](CCCCN)C(N)=O)[C@@H](C)CC)C(=O)O)C(=O)O [SEQ ID NO: 8, H-Aib-Q-G-T-F-T-S-D-L-S-K-L-K[gGlu-gGlu-Palm]-E-E-Q-R-Q-Aib-E-F-I-E-W-L-K-A-G-G-H-P-S-Aib-K-P-P-P-K-NH2] | statistically significant decrease in body mass | statistically significantly reduction in whole body fat mass | statistically significant reduction in plasma insulin concentrations | statistically significant reduction in plasma total cholesterol concentrations | statistically significantly lower liver mass | statistically significantly lower plasma alanine aminotransferase concentration | decrease in blood glucose concentrations below concentrations observed in DIO control mice | -8.23 ± 0.62 g | -6.65 ± 0.38 g | +1.08 ± 0.03 g | +68.88 ± 15.05 U/L | +39.70 ± 4.25 U/L | +4.36 ± 0.08 mmol/L | 11.25 |
| CCCCCCCCCCCCCCCC(=O)N[C@@H](CCC(=O)N[C@@H](CCC(=O)NCCCC[C@H](NC(=O)[C@H](CC(C)C)NC(=O)[C@H](CCCCN)NC(=O)[C@H](CO)NC(=O)[C@H](CC(C)C)NC(=O)[C@H](CC(=O)O)NC(=O)[C@H](CO)NC(=O)[C@@H](NC(=O)[C@H](Cc1ccccc1)NC(=O)[C@@H](NC(=O)CNC(=O)[C@H](CCC(N)=O)NC(=O)C(C)(C)NC(=O)[C@@H](N)Cc1c[nH]cn1)[C@@H](C)O)[C@@H](C)O)C(=O)N[C@@H](CCC(=O)O)C(=O)N[C@@H](CCC(=O)O)C(=O)N[C@@H](CCC(N)=O)C(=O)N[C@@H](CCCNC(=N)N)C(=O)N[C@@H](CCC(N)=O)C(=O)NC(C)(C)C(=O)N[C@@H](CCC(=O)O)C(=O)N[C@@H](Cc1ccccc1)C(=O)N[C@H](C(=O)N[C@@H](CCC(=O)O)C(=O)N[C@@H](Cc1c[nH]c2ccccc12)C(=O)N[C@@H](CC(C)C)C(=O)N[C@@H](CCCCN)C(=O)N[C@@H](C)C(=O)NCC(=O)NCC(=O)N1CCC[C@H]1C(=O)N1CCC[C@H]1C(=O)N[C@@H](CO)C(=O)NC(C)(C)C(=O)N[C@@H](CCCCN)C(=O)N1CCC[C@H]1C(=O)N1CCC[C@H]1C(=O)N1CCC[C@H]1C(=O)N[C@@H](CCCCN)C(N)=O)[C@@H](C)CC)C(=O)O)C(=O)O [SEQ ID NO: 9, H-Aib-Q-G-T-F-T-S-D-L-S-K-L-K[gGlu-gGlu-Palm]-E-E-Q-R-Q-Aib-E-F-I-E-W-L-K-A-G-G-P-P-S-Aib-K-P-P-P-K-NH2] | statistically significant decrease in body mass | statistically significantly reduction in whole body fat mass | statistically significant reduction in plasma insulin concentrations | statistically significant reduction in plasma total cholesterol concentrations | statistically significantly lower liver mass | statistically significantly lower plasma alanine aminotransferase concentration | decrease in blood glucose concentrations below concentrations observed in DIO control mice | -10.03 ± 2.33 g | -5.29 ± 2.32 g | +1.11 ± 0.06 g | +57.13 ± 7.33 U/L | +38.95 ± 7.30 U/L | +3.97 ± 0.12 mmol/L | 11.25 |

From US10519211B2, “Compounds as peptidic GLP1/glucagon/GIP receptor agonists” (SANOFI, priority 2016, dated 2019)
